In paper PMC6017562, “Aethiopinolones A–E, New Pregnenolone Type Steroids from the East African Basidiomycete Fomitiporia aethiopica” (Molecules : A Journal of Synthetic Chemistry and Natural …, 2018):
Values after ≈ are worked out from the molar mass of the structure shown.

Assays:
[1] = system: prostate cancer cells PC-3; assay: MTT cytotoxicity assay, PC-3; format: cell-based, human; conditions: PC-3 cells, 5 days incubation
Description: (§1) In vitro cytotoxicity (IC50) of the pure compounds 1–5 was determined against a panel of mammalian cell lines including mouse fibroblast L929, HeLa (KB-3-1), epidermoid carcinoma cells A431, breast cancer cells MCF-7, prostate cancer cells PC-3 and adenocarcinomic human alveolar basal epithelial cells A549. The cell lines were cultured in DMEM (Gibco, ThermoFisher Scientific, Hilden, Germany) and MCF-7 in RPMI (Lonza, Cologne, Germany) media, all supplemented with 10% of fetal bovine serum (Gibco) under 10% CO2 at 37 °C. The cytotoxicity assay was performed according to the MTT (3-(4,5-dimethylthiazol-2-yl)-2,5 diphenyltetrazolium bromide) method in 96-well microplates (ThermoFisher Scientific). Briefly 60 μL aliquots of serial dilutions from an initial stock of 1 mg/mL in MeOH of the test compounds were added to 120 μL aliquots of a cell suspension (5.0 × 10^4 cells/mL) in 96-well microplates. After 5 days incubation, a MTT assay was performed, and the absorbance measured at 590 nm using an ELISA plate reader (Victor, PerkinElmer, Überlingen, Germany). The concentration at which the growth of cells was inhibited to 50% of the control (IC50) was obtained from the dose response curves. The negative control was methanol.

[2] = system: breast cancer cells MCF-7; assay: MTT cytotoxicity assay, MCF-7; format: cell-based, human; conditions: MCF-7 cells, 5 days incubation
Description: as §1

[3] = system: adenocarcinomic human alveolar basal epithelial cells A549; assay: MTT cytotoxicity assay, A549; format: cell-based; conditions: 5 days incubation
Description: as §1

mouse fibroblast L929 = assay: MTT cytotoxicity assay, L929; format: cell-based; conditions: L929 cells, 5 days incubation
Description: as §1

[4] = system: epidermoid carcinoma cells A431; assay: MTT cytotoxicity assay, A431; format: cell-based, human; conditions: 5 days incubation
Description: as §1

HeLa (KB-3-1) = assay: MTT cytotoxicity assay, KB3.1; format: cell-based, human; conditions: KB3.1 cells, 5 days incubation
Description: as §1

SKOV-3 = assay: MTT cytotoxicity assay, SKOV-3; format: cell-based, human; conditions: SKOV-3 cells, 5 days incubation
[5] = MTT cytotoxicity assay, PC-3; format: cell-based, human; conditions: human, PC-3 prostate cancer cells, PC-3 cells, 5 days incubation
Description: as §1

[6] = system: various mammalian cell lines; assay: Cytotoxic effects against the panel of mammalian cell lines (overall statement); format: cell-based; conditions: all tested cell lines of Table 3
Description: as §1

[7] = MTT cytotoxicity assay, MCF-7; format: cell-based, human; conditions: human, MCF-7 breast cancer cells, MCF-7 cells, 5 days incubation
Description: as §1

[8] = MTT cytotoxicity assay, L929; format: cell-based, mouse; conditions: mouse, L929 fibroblast cells, 5 days incubation
Description: as §1

[9] = MTT cytotoxicity assay, A431; format: cell-based, human; conditions: human, A431 epidermoid carcinoma cells, 5 days incubation
Description: as §1

[10] = MTT cytotoxicity assay, KB3.1; format: cell-based, human; conditions: human, HeLa (KB-3-1) cells, KB3.1 cells, 5 days incubation
Description: as §1

[11] = MTT cytotoxicity assay, SKOV-3; format: cell-based, human; conditions: human, SKOV-3 cells, 5 days incubation
[12] = MTT cytotoxicity assay, A549; format: cell-based, human; conditions: human, A549 alveolar basal epithelial adenocarcinoma cells, 5 days incubation
Description: as §1

## C/C(=C\c1csc(C)n1)[C@@H]1C[C@@H]2O[C@]2(C)CCC[C@H](C)[C@H](O)[C@@H](C)C(=O)C(C)(C)[C@@H](O)CC(=O)O1 [Epothilon B, reference compound]
[1]
  Cytotoxicity IC50: 0.0002 µg/mL
[2]
  Cytotoxicity IC50: 0.0004 µg/mL
[3]
  Cytotoxicity IC50: 0.005 µg/mL
Mouse fibroblast L929
  Cytotoxicity IC50: 0.0014 µg/mL
[4]
  Cytotoxicity IC50: 0.0006 µg/mL
HeLa (KB-3-1)
  Cytotoxicity IC50: 0.00022 µg/mL
SKOV-3
  Cytotoxicity IC50: 0.0014 µg/mL

## CC(=O)C1C(O)CC2C3=CC(=O)C4CC(O)CCC4(C)C3(O)CCC21C (centres unmarked) [Compound 1, Aethiopinolone A]
[5]
  IC50 at 5 days: 8 µg/mL (≈ 22.1 µM)
[6]
  Cytotoxic activity against the tested cell lines (in words): strongest activity
[7]
  IC50 at 5 days: 20 µg/mL (≈ 55.2 µM)
[8]
  IC50 at 5 days: 28 µg/mL (≈ 77.2 µM)
[9]
  IC50 at 5 days: 22 µg/mL (≈ 60.7 µM)
[10]
  IC50 at 5 days: 19 µg/mL (≈ 52.4 µM)
[11]
  IC50 at 5 days: 26 µg/mL (≈ 71.7 µM)

## CC(=O)C1=CC[C@H]2C3=CC(=O)[C@H]4C[C@H](O)CC[C@]4(C)[C@@]3(O)CC[C@]12C [Compound 4, Aethiopinolone D]
[5]
  IC50 at 5 days: 40 µg/mL (≈ 116 µM)
[6]
  Cytotoxic activity against the tested cell lines (in words): moderate activity
[7]
  IC50 at 5 days: 17 µg/mL (≈ 49.4 µM)
[12]
  IC50 at 5 days: 52 µg/mL (≈ 151 µM)
[8]
  IC50 at 5 days: 45 µg/mL (≈ 131 µM)
[9]
  IC50 at 5 days: 21 µg/mL (≈ 61 µM)
[10]
  IC50 at 5 days: 39 µg/mL (≈ 113 µM)
[11]
  IC50 at 5 days: 36 µg/mL (≈ 105 µM)

## CC(=O)C1=CC[C@H]2C3=CC(=O)[C@H]4C[C@@H](O)CC[C@]4(C)[C@@]3(O)CC[C@]12C [Compound 3, Aethiopinolone C]
[5]
  IC50 at 5 days: 45 µg/mL (≈ 131 µM)
[6]
  Cytotoxic activity against the tested cell lines (in words): moderate activity
[7]
  IC50 at 5 days: 18 µg/mL (≈ 52.3 µM)
[12]
  IC50 at 5 days: 70 µg/mL (≈ 203 µM)
[8]
  IC50 at 5 days: 40 µg/mL (≈ 116 µM)
[9]
  IC50 at 5 days: 27 µg/mL (≈ 78.4 µM)
[10]
  IC50 at 5 days: 35 µg/mL (≈ 102 µM)
[11]
  IC50 at 5 days: 38 µg/mL (≈ 110 µM)

## CC(=O)C1=CC[C@H]2C3=CC(=O)[C@H]4CC(=O)CC[C@]4(C)[C@@]3(O)CC[C@]12C [Compound 5, Aethiopinolone E]
[5]
  IC50 at 5 days: 39 µg/mL (≈ 114 µM)
[7]
  IC50 at 5 days: 16 µg/mL (≈ 46.7 µM)
[12]
  IC50 at 5 days: 43 µg/mL (≈ 126 µM)
[8]
  IC50 at 5 days: 40 µg/mL (≈ 117 µM)
[9]
  IC50 at 5 days: 14 µg/mL (≈ 40.9 µM)
[10]
  IC50 at 5 days: 33 µg/mL (≈ 96.4 µM)
[11]
  IC50 at 5 days: 34 µg/mL (≈ 99.3 µM)

## CC(=O)[C@H]1[C@H](O)C[C@H]2C3=CC(=O)[C@H]4C[C@H](O)CC[C@]4(C)[C@@]3(O)CC[C@@]21C [Compound 2, Aethiopinolone B]
[5]
  IC50 at 5 days: > 70 µg/mL
[7]
  IC50 at 5 days: > 70 µg/mL
[12]
  IC50 at 5 days: > 70 µg/mL
[8]
  IC50 at 5 days: 45 µg/mL (≈ 124 µM)
[9]
  IC50 at 5 days: > 70 µg/mL
[10]
  IC50 at 5 days: 39 µg/mL (≈ 108 µM)
[11]
  IC50 at 5 days: > 70 µg/mL
